Where “and” joins values, the source holds several entries; their conditions need not be identical. Equal values may be shown once. Read-outs that look alike come from different tables or passages of the source.
Legend:
[1] = assay type: physicochemical
Staphylococcus aureus = assay type: cell-based

Compound	hydrogen peroxide concentration ([1]; T0)	hydrogen peroxide concentration ([1]; T = 15 min)	hydrogen peroxide concentration ([1]; T = 24 h)	hydrogen peroxide concentration ([1]; T = 72 h)	activity along EN 13727 (Active/Inefficient) (Staphylococcus aureus)	activity along EN 13727, log reduction (Staphylococcus aureus)
sodium alkylsulfate [Sodium alkyl (dodecyl) sulfate]	7.6%	7.6%	7.6%	7.4% and 7.6%	–	–
O=S(=O)([O-])[O-].[Cu+2] [CuSO4, copper sulfate]	–	–	–	–	Inefficient	–
sodium alkylethersulfate	7.6%	7.6%	7.3% and 7.6%	6.9% and 7.6%	–	–
OO [H2O2, hydrogen peroxide]	–	–	–	–	Active	>5 log
